Laboratory results published in ChEMBL document CHEMBL5579818, “Identification of 3-(9H-carbazol-9-yl)-2-(1,3-dioxoisoindolin-2-yl)propanoic acids as promising DNMT1 inhibitors” (Eur J Med Chem, 2024).
Active and inactive are the calls of the source. The calls are words filed in the database; no cut-off is given here.

How the values were obtained:
[1] = biological target: T1, DNA (cytosine-5)-methyltransferase 1 (Homo sapiens, UniProt P26358); assay: Inhibition of DNMT1 (unknown origin) at 250 uM using semi-methylated DNA substrate preincubated for 15 mins followed by substrate and [3H-SAM] addition and measured after 60 mins by microbeta scintillation counting assay relative to control; settings: time 75.0 min
[2] = tested on: A2780; assay: Antiproliferative activity against human A2780 cells at 100 uM incubated for 48 hrs by MTT assay; type: functional
[3] = tested on: HeLa; assay: Antiproliferative activity against human HeLa cells at 100 uM incubated for 48 hrs by MTT assay; type: functional
[4] = tested on: K562; assay: Antiproliferative activity against human K562 cells at 100 uM incubated for 48 hrs by MTT assay; type: functional
[5] = tested on: SiHa; assay: Antiproliferative activity against human SiHa cells at 100 uM incubated for 48 hrs by MTT assay; type: functional
[6] = biological target: T1, DNA (cytosine-5)-methyltransferase 1; assay: Binding affinity to human DNMT1 expressed in Escherichia coli assessed as equilibrium dissociation constant by SPR analysis
[7] = biological target: T1, DNA (cytosine-5)-methyltransferase 1; assay: Inhibition of DNMT1 (unknown origin) using semi-methylated DNA substrate preincubated for 15 mins followed by substrate and [3H-SAM] addition and measured after 60 mins by microbeta scintillation counting assay
[8] = tested on: A2780; assay: Antiproliferative activity against human A2780 cells incubated for 48 hrs by MTT assay; type: functional, cell-based; settings: A2780, 48 h
[9] = tested on: HeLa; assay: Antiproliferative activity against human HeLa cells incubated for 48 hrs by MTT assay; type: functional, cell-based
[10] = tested on: K562; assay: Antiproliferative activity against human K562 cells incubated for 48 hrs by MTT assay; type: functional, cell-based; settings: K562, 48 h
[11] = tested on: SiHa; assay: Antiproliferative activity against human SiHa cells incubated for 48 hrs by MTT assay; type: functional, cell-based
[12] = biological target: T1, DNA (cytosine-5)-methyltransferase 1; assay: Binding affinity to human DNMT1 expressed in Escherichia coli assessed as response unit at 10 uM by SPR analysis
[13] = biological target: T1, DNA (cytosine-5)-methyltransferase 1; assay: Binding affinity to human DNMT1 expressed in Escherichia coli assessed as binding constant by SPR analysis

T1 sequence (P26358 whole entry): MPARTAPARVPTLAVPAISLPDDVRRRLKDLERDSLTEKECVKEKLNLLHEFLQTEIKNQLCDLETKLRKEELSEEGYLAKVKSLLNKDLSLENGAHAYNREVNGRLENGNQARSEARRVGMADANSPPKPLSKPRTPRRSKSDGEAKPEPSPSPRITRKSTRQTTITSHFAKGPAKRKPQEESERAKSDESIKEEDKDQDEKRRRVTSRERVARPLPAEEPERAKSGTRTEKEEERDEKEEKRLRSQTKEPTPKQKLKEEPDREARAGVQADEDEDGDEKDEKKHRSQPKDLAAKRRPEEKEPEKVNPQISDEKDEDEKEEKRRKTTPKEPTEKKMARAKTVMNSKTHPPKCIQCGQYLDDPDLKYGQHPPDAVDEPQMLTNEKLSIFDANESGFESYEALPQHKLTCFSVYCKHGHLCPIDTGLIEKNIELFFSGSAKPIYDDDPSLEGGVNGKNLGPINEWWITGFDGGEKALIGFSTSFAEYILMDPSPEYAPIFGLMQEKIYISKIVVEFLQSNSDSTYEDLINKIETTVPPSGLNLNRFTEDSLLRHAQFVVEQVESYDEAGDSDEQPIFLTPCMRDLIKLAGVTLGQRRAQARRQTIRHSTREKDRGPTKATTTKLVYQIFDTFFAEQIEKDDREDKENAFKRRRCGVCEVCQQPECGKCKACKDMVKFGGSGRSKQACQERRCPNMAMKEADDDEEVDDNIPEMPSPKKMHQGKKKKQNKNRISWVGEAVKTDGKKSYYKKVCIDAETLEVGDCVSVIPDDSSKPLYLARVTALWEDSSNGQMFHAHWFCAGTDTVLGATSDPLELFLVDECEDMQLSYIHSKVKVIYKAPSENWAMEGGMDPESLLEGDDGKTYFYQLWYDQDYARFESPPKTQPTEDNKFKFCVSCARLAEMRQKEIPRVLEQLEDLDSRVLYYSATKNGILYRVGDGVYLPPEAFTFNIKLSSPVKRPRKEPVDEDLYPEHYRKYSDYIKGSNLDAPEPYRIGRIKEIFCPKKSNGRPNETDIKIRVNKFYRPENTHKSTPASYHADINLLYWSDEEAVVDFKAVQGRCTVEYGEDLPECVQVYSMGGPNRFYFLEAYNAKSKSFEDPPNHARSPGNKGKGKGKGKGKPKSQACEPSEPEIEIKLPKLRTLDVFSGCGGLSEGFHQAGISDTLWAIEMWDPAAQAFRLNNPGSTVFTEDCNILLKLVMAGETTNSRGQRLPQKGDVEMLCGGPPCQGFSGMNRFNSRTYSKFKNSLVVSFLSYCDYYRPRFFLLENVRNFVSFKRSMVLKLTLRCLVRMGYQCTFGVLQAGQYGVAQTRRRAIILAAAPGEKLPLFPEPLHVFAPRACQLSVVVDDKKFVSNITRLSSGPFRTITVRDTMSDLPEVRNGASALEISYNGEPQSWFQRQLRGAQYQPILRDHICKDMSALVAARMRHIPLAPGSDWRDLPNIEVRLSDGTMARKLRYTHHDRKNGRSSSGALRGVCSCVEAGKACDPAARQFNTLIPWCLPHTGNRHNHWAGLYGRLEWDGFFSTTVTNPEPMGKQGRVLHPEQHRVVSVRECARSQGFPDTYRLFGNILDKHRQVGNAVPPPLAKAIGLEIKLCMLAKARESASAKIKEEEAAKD

## O=C(O)C(Cn1c2ccccc2c2cc(I)ccc21)N1C(=O)c2ccccc2C1=O (racemic)
[1]
  inhibition: < 50%
[2]
  Activity: <5%
[3]
  Activity: <5%
[4]
  Activity: <5%
[5]
  Activity: <5%

## O=C(O)[C@@H](Cn1c2ccc(Cl)cc2c2cc(Cl)cc(Cl)c21)N1C(=O)c2ccccc2C1=O
[6]
  Kd: 0.127 µM
[7]
  IC50: 0.777 µM
[8]
  IC50: 68.6 µM
[9]
  IC50: 89 µM
[10]
  IC50: 44.4 µM
[11]
  IC50: 83.2 µM

## O=C(O)C(Cn1c2ccccc2c2cc(OCC3CO3)ccc21)N1C(=O)c2ccccc2C1=O (racemic)
[1]
  inhibition: < 50%
[2]
  Activity: <5%
[3]
  Activity: <5%
[4]
  Activity: <5%
[5]
  Activity: <5%

## O=C(O)C(Cn1c2ccc(Br)cc2c2cc(Br)ccc21)N1C(=O)c2ccccc2C1=O (racemic)
[12]
  Activity: Active
[13]
  Ka: 34000 M⁻¹ s⁻¹
[1]
  inhibition: > 75%

## CC(C)(C)c1ccc2c(c1)c1cc(C(C)(C)C)ccc1n2CC(C(=O)O)N1C(=O)c2ccccc2C1=O (racemic)
[12]
  Activity: 52.7 RU
[6]
  Kd: 0.841 µM
[1]
  inhibition: > 75%
[2]
  Activity: 98%
[3]
  Activity: 79%
[4]
  Activity: 99%
[8]
  IC50: 36.6 µM
[9]
  IC50: 60.5 µM
[10]
  IC50: 22.5 µM
[11]
  IC50: 43.3 µM

## O=C(O)C(Cn1c2ccccc2c2cc(Br)ccc21)N1C(=O)c2ccccc2C1=O (racemic)
[1]
  inhibition: < 50%
[2]
  Activity: <5%
[3]
  Activity: <5%
[4]
  Activity: <5%
[5]
  Activity: <5%

## O=C(O)C(Cn1c2ccc(I)cc2c2cc(I)ccc21)N1C(=O)c2ccccc2C1=O (racemic)
[12]
  Activity: 57.9 RU
[13]
  Ka: 239000 M⁻¹ s⁻¹
[1]
  inhibition: > 75%

## Cc1ccc2c(c1)c1cc(C)ccc1n2CC(C(=O)O)N1C(=O)c2ccccc2C1=O (racemic)
[12]
  Activity: Active
[1]
  inhibition: > 75%

## O=C(O)C(Cn1c2ccc(Cl)cc2c2cc(Cl)cc(Cl)c21)N1C(=O)c2ccccc2C1=O (racemic)
[12]
  Activity: 65.5 RU
[6]
  Kd: 0.16 µM
[1]
  inhibition: > 75%
[2]
  Activity: 59%
[3]
  Activity: 52%
[4]
  Activity: 91%
[8]
  IC50: 72.8 µM
[9]
  IC50: 97.6 µM
[10]
  IC50: 45.8 µM
[11]
  IC50: 78 µM

## O=C(O)C(Cn1c2cc(Br)ccc2c2ccc(Br)cc21)N1C(=O)c2ccccc2C1=O (racemic)
[12]
  Activity: Active
[1]
  inhibition: > 75%
